The text below walks through data of article PMC6100724, “Proteome‐wide analysis of phospho‐regulated PDZ domain interactions” (Molecular Systems Biology, 2018).

What all share (test): Phosphomimetic ProP-PD selection with NGS
Assay [1] concerns DLG1 PDZ1. In kind it is binding, human. The conditions noted are these: mean of selections 1-3, bait DLG1 PDZ1; for Mean fraction #NGS counts mimetic peptide / total count selection: phosphomimetic peptide; for Mean fraction #NGS counts wt peptide / total counts selection: wild type peptide. As to the method:
(§1) Phage selections were carried out for four rounds following a protocol by Huang and Sidhu (Huang & Sidhu, 2011) with minor modifications. Non‐specific binding phage was removed by pre‐selections against immobilized GST throughout the selection. The selections against the (pre‐)phosphorylated wild‐type library were performed in 50 mM HEPES (pH 7.4) and 150 mM NaCl (HBS) following the same procedure after pre‐phosphorylation of the library.
(§2) • Immobilize proteins (15 μg in 100 μl PBS) in a 96‐well MaxiSorp microtiter plate (NUNC) overnight at 4°C. • Start a 2YT culture of E. coli Omnimax supplemented with 100 μg/ml tetracycline to retain the F pilus epitope. • Block the wells with 200 μl 0.5% BSA in PBS for 2 h at 4°C. • Precipitate naïve phage library (10^11 cfu per selection) or amplified phage pool from the previous round of selection by adding one‐fifth the volume of PEG/NaCl. • Incubate on ice for 10 min, and pellet precipitated phage by centrifugation at 5,300 g for 15 min. Resuspend the phage pellet in 100 μl PBS per selection. • Add 100 μl of phage solution to the GST‐coated pre‐selection wells and incubate for 1 h. • Transfer the phage solution to the immobilized target proteins and allow it to bind for 2 h at 8°C. • Wash the plate four times with 200 μl cold wash buffer (PBS, 0.05% Tween‐20). • Elute bound phage by incubation with 100 μl log phase (0.6–0.8 OD600) E. coli Omnimax for 30 min at 37°C with shaking (200 RPM). • Add 10^12 cfu/ml M13K07 helper phage for hyperinfection of the bacteria and incubate as above for 45 min. • Transfer the bacterial culture to 10 ml 2YT supplemented with 50 μg/ml carbenicillin, 25 μg/ml kanamycin, and 300 μM IPTG and incubate overnight at 37°C while shaking. • Perform phage pool ELISA to monitor the progress of the selection as described previously (Huang & Sidhu, 2011).
(§3) The naïve library and the enriched phage pools of the third day of selection were amplified and barcoded by PCR and analyzed by NGS as described elsewhere (McLaughlin & Sidhu, 2013; Ivarsson et al, 2014). The reads were demultiplexed using the barcode sequences and filtered by discarding sequences with a Phred quality score under 30. Sequences were mapped to the original library using Bowtie (Langmead et al, 2009) with two mismatches between reads and library sequence. Nucleotide mutations leading to amino acid substitutions were subsequently removed. Cutoff values of NGS counts were assigned for each pool. PWMs were generated based on the remaining peptides (aligned on the C‐termini) using WebLogo (Crooks et al, 2004).
(§4) However, there was no significant correlation of the actual read counts (selection “strength”) and the initial representation in the library, reflecting the strong selection during phage display (wt+mimetic: P‐value: 0.49, ρ = −0.08, mimetic only: P‐value: 0.069, ρ = −0.2, wt only: P‐value: 0.12, ρ = 0.17). Consequently, the amount of reads for each binder after phage display is not a function of the amount of input reads in the naïve library and no modeling based on the input library frequencies to score the interactions is necessary. To allow for comparison between replicate selections, we used the fraction of NGS reads within a certain set, instead of the absolute number of NGS reads, as the absolute numbers differ between different NGS batches.

Assay [2] concerns the target T1, DLG1 PDZ2 (Homo sapiens, UniProt Q12959).
T1 construct: human DLG1 PDZ2 aa 311–407 in a modified pRSET vector 40; made in house; host or cells: E. coli BL21 Gold (DE3)
In kind it is binding. The note with it: mean of selections 1-3, bait DLG1 PDZ2. How it is done: as §1, §2, §3, §4

Assay [3] concerns the target T2, Scribble PDZ1 (Homo sapiens, UniProt Q14160).
T2 construct: human Scribble PDZ1 aa 719–829 in; made in house; host or cells: E. coli BL21 Gold (DE3)
In kind it is binding. The note with it: bait Scribble PDZ1; mean of selections 1-3. How it is done: as §1, §2, §3, §4

The test system of assay [4] is Scribble PDZ3. In kind it is binding, human. The conditions noted are these: bait Scribble PDZ3. How it is done: as §1, §2, §3, §4

T1 sequence (Q12959 311-407): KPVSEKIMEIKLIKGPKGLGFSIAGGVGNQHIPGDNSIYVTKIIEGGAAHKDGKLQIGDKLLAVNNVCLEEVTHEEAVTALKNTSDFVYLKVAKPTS
T2 sequence (Q14160 719-829): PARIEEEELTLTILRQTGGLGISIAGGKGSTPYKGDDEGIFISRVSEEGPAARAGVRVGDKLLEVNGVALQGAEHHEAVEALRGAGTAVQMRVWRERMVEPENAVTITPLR

Regarding SSGEQHTNV, the figures for the “Mean fraction #NGS counts mimetic peptide / total count selection” value in assay [1] and in assay [2] were 0 and 5.744e-6, respectively.

For SSGSQHTNV, the entries for the “Mean fraction #NGS counts wt peptide / total counts selection” value in assay [1] and in assay [2] were 5.9593e-5 and 0.001066, respectively.

With ESGSQHTNV, the “Mean fraction #NGS counts mimetic peptide / total count selection” value in assay [1] turned out to be 0.

KYDKELEPV: in assay [1], the “Mean fraction #NGS counts mimetic peptide / total count selection” value is given as 0.003147.

For the sequence SSGHTSTTL, the “Mean fraction #NGS counts wt peptide / total counts selection” value in assay [1] is listed as 0.

With RISSLESEV, the “Mean fraction #NGS counts wt peptide / total counts selection” value in assay [1] is reported as 0.0001168; in assay [2] (wild type peptide), 0.00571.

For ASEPGGTVV, in assay [1], the “Mean fraction #NGS counts mimetic peptide / total count selection” value is given as 0.

For MRLQSETSV, the “Mean fraction #NGS counts wt peptide / total counts selection” value was 1.185e-6 in assay [1] and 5.408e-5 in assay [2].

For the sequence EGSYLVTSV, the “Mean fraction #NGS counts mimetic peptide / total count selection” value in assay [2] (phosphomimetic peptide) was 0.0002179; in assay [3] it was 1.46e-5.

On to RIESLESEV, for which the figures for the “Mean fraction #NGS counts mimetic peptide / total count selection” value in assay [1] and in assay [2] (phosphomimetic peptide) were 1.703e-5 and 0.000103, respectively.

As to RRESYSTTV, the “Mean fraction #NGS counts wt peptide / total counts selection” value in assay [1] was found to be 0.005493; in assay [2] it was 0.0006987.

For RPHTNETSL, the “Mean fraction #NGS counts wt peptide / total counts selection” value in assay [4] (mean over selections 1-3) was found to be 0.0004079; in assay [3] it was 0.0005328.

As to QKFRASTAL, the entries for the “Mean fraction #NGS counts wt peptide / total counts selection” value in assay [4] (mean over selections 1-3) and in assay [3] were 4.038e-6 and 0, respectively.

For the sequence TRLSQHTDV, the “Mean fraction #NGS counts wt peptide / total counts selection” value in assay [1] was determined as 0.0004744; in assay [2] it was 0.0007437.

Consider KYDKELTPV, for which the “Mean fraction #NGS counts wt peptide / total counts selection” value in assay [1] is on record as 1.185e-6.

Consider KLESIESDV, for which the “Mean fraction #NGS counts mimetic peptide / total count selection” value in assay [1] turned out to be 0.

On to KPSRISTVV, for which the results for the “Mean fraction #NGS counts wt peptide / total counts selection” value in assay [1] and in assay [2] (wild type peptide) were 0 and 2.5129e-5, respectively.

Consider ARVSKEEPL, for which the “Mean fraction #NGS counts mimetic peptide / total count selection” value was 0 in assay [4] (mean over selections 1-3), 0 in assay [2] and 1.46e-5 in assay [3].

With DKEEFLTWL, the results for the “Mean fraction #NGS counts mimetic peptide / total count selection” value in assay [4] (mean over selections 1-3) and in assay [3] were 0.0001294 and 0, respectively.

Turning to VRKLPSTTL, the “Mean fraction #NGS counts wt peptide / total counts selection” value in assay [4] (mean of selections 1-3, wild type peptide) was 8.076e-6; in assay [4] (mean over selections 1-3) it was 8.076e-6; in assay [3], 6.957e-5.

Regarding DKESFLTWL, the “Mean fraction #NGS counts wt peptide / total counts selection” value in assay [4] (mean over selections 1-3) was 0.01024; in assay [3], 0.000274.

With SEGHTSTTL, the “Mean fraction #NGS counts mimetic peptide / total count selection” value in assay [1] came out at 5.924e-6.

Turning to ARVSKETPL, the “Mean fraction #NGS counts wt peptide / total counts selection” value in assay [4] (mean over selections 1-3) amounted to 0.1287; in assay [2], 0.002959; in assay [3] it was 0.07558.

Regarding ASSPGGTVV, the “Mean fraction #NGS counts wt peptide / total counts selection” value in assay [1] worked out at 2.813e-5.

PIHELETSL: the “Mean fraction #NGS counts mimetic peptide / total count selection” value in assay [4] (mean over selections 1-3) and in assay [3] was 0 throughout.

For PIHSLETEL, the “Mean fraction #NGS counts mimetic peptide / total count selection” value in assay [4] (mean over selections 1-3) turned out to be 0.002436; in assay [3] it was 0.002226.

For PLHSLEESL, the “Mean fraction #NGS counts mimetic peptide / total count selection” value in assay [4] (mean over selections 1-3) and in assay [3] was 0 each time.

With HEKVFESAL, the results for the “Mean fraction #NGS counts mimetic peptide / total count selection” value in assay [4] (mean over selections 1-3) and in assay [3] were 0.07851 and 0.0004614, respectively.

Turning to MKRLTETRL, the “Mean fraction #NGS counts mimetic peptide / total count selection” value in assay [4] (mean over selections 1-3) was 0.001041; in assay [3], 0.01768.

As to VRKLPETEL, the “Mean fraction #NGS counts mimetic peptide / total count selection” value in assay [4] (mean of selections 1-3, phosphomimetic peptide) came out at 0.01059; in assay [3], 4.38e-5.
